According to patent publication US9828338B2, “Carbamate derivatives of lactam based N-acylethanolamine acid amidase (NAAA) inhibitors” (The Regents of the University of California, priority 2013, dated 2017):

Columns and labels:
human NAAA = molecular target: T1, human NAAA (Homo sapiens, UniProt Q02083); assay: Fluorogenic h-NAAA assay; format: biochemical; details: for inhibition at […]: @ 2.5 μM; for inhibition at […] / inhibition at 50 µM: read-out: h-NAAA Fluorogenic assay % inhib.
T1 construct: made in house; host or cells: HEK293 cells, stably transfected; soluble lysosomal fraction used as enzyme source
T1 sequence (Q02083 29-359): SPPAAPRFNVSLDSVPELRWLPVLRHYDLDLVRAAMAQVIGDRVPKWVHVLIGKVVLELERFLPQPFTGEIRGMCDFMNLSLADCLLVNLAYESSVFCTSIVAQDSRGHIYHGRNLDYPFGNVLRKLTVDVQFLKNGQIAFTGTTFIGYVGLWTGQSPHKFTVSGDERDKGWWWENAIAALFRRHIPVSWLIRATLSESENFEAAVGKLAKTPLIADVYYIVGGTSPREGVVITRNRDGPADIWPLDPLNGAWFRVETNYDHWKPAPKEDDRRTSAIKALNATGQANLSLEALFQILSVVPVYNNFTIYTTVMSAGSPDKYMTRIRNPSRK
Protocol: Hek293 cells stably transfected with the human NAAA coding sequence cloned from a human spleen cDNA library were used as enzyme source. Recombinant HEK-hNAAA pellets were resuspended in homogenizing buffer, and sonicated. Samples were centrifuged at 800×g for 15 min at 4° C. and the resultant supernatants were then ultracentrifuged at 12,000×g for 30 min at 4° C. The pellets were resuspended in PBS pH 7.4 on ice and subjected to a freeze/thaw cycle at −80° C. The suspension was finally centrifuged at 105,000×g for 1 h at 4° C. Protein concentration was measured and samples aliquoted and stored at −80° C. until use.
The assay was run in Optiplate 96-wells black plates, in a total reaction volume of 200 μL. NAAA protein preparation (4.0 μg) was pre-incubated for 10 min with various concentrations of test compounds or vehicle control (5% DMSO) in 100 mM citrate/phosphate buffer (pH 4.5) containing 3.0 mM DTT, 0.1% Triton X-100, 0.05% BSA, 150 mM NaCl. N-(4-methyl-2-oxo-chromen-7-yl)-hexadecanamide was used as a substrate (5.0 μM) and the reaction carried over for 30 min at 37° C. The samples were then read in a Perkin Elmer Envision plate reader using an excitation wavelength of 360 nm and emission 460 nm. IC50 values were calculated by non-linear regression analysis of log [concentration]/inhibition curves using GraphPad Prism 5 (GraphPad Software Inc., CA—USA) applying a standard slope curve fitting.

r-NAAA = molecular target: T2, r-NAAA (Rattus norvegicus, UniProt Q5KTC7); assay: UPLC/MS r-NAAA assay; format: biochemical
T2 construct: Lysosomal NAAA protein preparation was obtained by homogenizing male Sprague-Dawley rat lungs; tissue Charles River (animals); host or cells: male Sprague-Dawley rat lung, soluble lysosomal fraction
T2 sequence (Q5KTC7 34-362): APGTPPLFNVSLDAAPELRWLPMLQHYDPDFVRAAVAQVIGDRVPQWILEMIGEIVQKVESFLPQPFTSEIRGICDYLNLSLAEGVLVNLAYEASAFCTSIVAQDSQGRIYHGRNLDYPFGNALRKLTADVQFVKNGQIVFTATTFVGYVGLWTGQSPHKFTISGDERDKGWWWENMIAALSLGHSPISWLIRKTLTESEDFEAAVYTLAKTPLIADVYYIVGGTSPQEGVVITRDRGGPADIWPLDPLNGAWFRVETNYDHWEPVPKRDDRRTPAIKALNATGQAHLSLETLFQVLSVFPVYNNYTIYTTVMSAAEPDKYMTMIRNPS
Protocol: Lysosomal NAAA protein preparation was obtained by homogenizing male Sprague-Dawley rat lungs (Charles River) in 20 mM Tris-HCl buffer pH 7.4 containing 0.32M sucrose. […] Supernatants were then centrifuged at 12,000 xg for 30 min at 4° C. Pellets were then resuspended in PBS pH 7.4 and subjected to a freeze/thaw cycle at −80° C. The suspension was finally centrifuged at 105,000×g for 1 h at 4° C. The supernatant was then used in the enzymatic assay.
NAAA protein preparation was pre-incubated with various concentrations of test compounds or vehicle control in 100 mM NaH2PO4/Citrate buffer, 1% Triton-X, 3 mM DTT (pH 4.5) for 30 min at 37° C. Samples were then incubated with heptadecenoylethanolamide (50 μM, Avanti Polar Lipids) at 37° C. for 30 min. The reaction was terminated by addition of cold methanol containing heptadecanoic acid (NuCheck Prep) as internal standard. Samples were then analyzed by UPLC/MS (Acquity, Waters). […] The column temperature was 40° C. Electrospray ionization was in the negative mode, capillary voltage was 0.5 kV, cone voltage was […], desolvation temperature was 500° C. N2 was used as drying gas at a flow rate of 1000 L/hour and a temperature of 500° C. […] Calibration curves were generated using commercial heptadecenoic acid (NuCheck Prep) Inhibition of NAAA activity was calculated as reduction of heptadecenoic acid in the samples compared to vehicle controls. IC50 values were calculated by non-linear regression analysis of log [concentration]/inhibition curves using GraphPad Prism 5 (GraphPad Software Inc., CA—USA) applying a standard slope curve fitting.

For `O=C(N[C@H]1CNC1=O)OCc1ccc(OC2CC3CCC2C3)cc1` (mixture of isomers) [Example 102, 4-[(1R,2R,4S)- and (1S,2S,4R)-Norbornan-2-yl]-oxyphenyl]-methyl-N-[(3S)-2-oxoazetidin-3-yl]-carbamate], the inhibition at […] (human NAAA) was 95%.
Work on `O=C(N[C@H]1CNC1=O)OCCCc1ccccc1` [Example 27, 3-Phenylpropyl-N-[(3S)-2-oxoazetidin-3-yl]-carbamate] yielded an inhibition at […] (human NAAA) of 45%.
`O=C(N[C@H]1CNC1=O)OCCc1ccccc1` [Example 28, Phenethyl-N-[(3S)-2-oxoazetidin-3-yl]-carbamate] showed an inhibition at 50 µM (human NAAA) of 65%.
With `O=C(N[C@H]1CNC1=O)OCCCCc1cccnc1` [Example 47, 4-(3-Pyridyl)-butyl-N-[(3S)-2-oxoazetidin-3-yl]-carbamate] the inhibition at 50 µM (human NAAA) was 55%.
Compound `O=C(N[C@H]1CNC1=O)OCCCOC1CCCCC1` [Example 50, 3-(Cyclohexoxy)-propyl-N-[(3S)-2-oxoazetidin-3-yl]-carbamate] has an inhibition at […] (human NAAA) of 25%.
With `O=C(N[C@H]1CNC1=O)OCc1ccc(C(=O)N2CCOCC2)cc1` [Example 53, [4-(Morpholine-4-carbonyl)-phenyl]-methyl-N-[(3S)-2-oxoazetidin-3-yl]-carbamate] the inhibition at 50 µM (human NAAA) was 55%.
Compound `O=C(N[C@H]1CNC1=O)OCc1ccc(-c2nc3ccccc3o2)cc1` [Example 54, [4-(1,3-Benzoxazol-2-yl)-phenyl]-methyl-N-[(3S)-2-oxoazetidin-3-yl]-carbamate] has an IC50 (human NAAA) of 0.675 µM.
`O=C(N[C@H]1CNC1=O)OCc1ccc(-c2ccccc2)c(F)c1` [Example 60, (3-Fluoro-4-phenyl-phenyl)-methyl-N-[(3S)-2-oxoazetidin-3-yl]-carbamate] gave an IC50 (human NAAA) of 0.237 µM.
Compound `O=C(N[C@H]1CNC1=O)OCc1ccc(-c2ccccc2)nc1` [Example 67, (6-Phenyl-3-pyridyl)-methyl-N-[(3S)-2-oxoazetidin-3-yl]-carbamate] has an inhibition at […] (human NAAA) of 60%.
In the case of `O=C(N[C@H]1CNC1=O)OCc1ccc(C(=O)NC2CCCCC2)cc1` [Example 68, [4-(Cyclohexylcarbamoyl)-phenyl]-methyl-N-[(3S)-2-oxoazetidin-3-yl]-carbamate], the inhibition at […] (human NAAA) is reported as 18%.
`O=C(N[C@H]1CNC1=O)OCc1ccc(C(=O)N2CCCCC2)cc1` [Example 69, [4-(Piperidine-1-carbonyl)-phenyl]-methyl-N-[(3S)-2-oxoazetidin-3-yl]-carbamate] showed an inhibition at […] (human NAAA) of 12%.
In the case of `O=C(N[C@H]1CNC1=O)OCc1ccc(C(=O)NCc2ccccc2)cc1` [Example 70, [4-(Benzylcarbamoyl)-phenyl]-methyl-N-[(3S)-2-oxoazetidin-3-yl]-carbamate], the inhibition at […] (human NAAA) is reported as 40%.
For `O=C(N[C@H]1CNC1=O)OCc1ccc(-c2ccccc2F)cc1` [Example 71, [4-(2-Fluorophenyl)-phenyl]-methyl-N-[(3S)-2-oxoazetidin-3-yl]-carbamate], the IC50 (human NAAA) was 0.365 µM.
`C[C@H]1NC(=O)[C@@H]1NC(=O)OCCCCC1CCCCC1` [Example 80, 4-Cyclohexylbutyl-N-[(2R,3R)-2-methyl-4-oxo-azetidin-3-yl]-carbamate] was tested, and the IC50 (r-NAAA) was 21.5 µM.
For `C[C@H]1NC(=O)[C@@H]1NC(=O)OCc1ccc(-c2ccccc2)cc1` [Example 81, (4-Phenylphenyl)-methyl-N-[(2R,3R)-2-methyl-4-oxo-azetidin-3-yl]-carbamate], the “r-NAAA UPLC/MS assay (n.a.)” value (r-NAAA; @100 μM) was “n.a. (n.a. = <10% inhib. @100 μM)”.
Compound `C[C@H]1NC(=O)[C@@H]1NC(=O)OCc1ccc(C2CCCCC2)cc1` [Example 82, (4-Cyclohexylphenyl)-methyl-N-[(2R,3R)-2-methyl-4-oxo-azetidin-3-yl]-carbamate] has an IC50 (r-NAAA) of 5.1 µM.
Work on `C[C@@H]1NC(=O)[C@@H]1NC(=O)OCCCCC1CCCCC1` [Example 83, 4-Cyclohexylbutyl-N-[(2S,3R)-2-methyl-4-oxo-azetidin-3-yl]-carbamate] yielded an IC50 (r-NAAA) of 4.7 µM.
For `C[C@@H]1NC(=O)[C@@H]1NC(=O)OCc1ccc(-c2ccccc2)cc1` [Example 84, (4-Phenylphenyl)-methyl-N-[(2S,3R)-2-methyl-4-oxo-azetidin-3-yl]-carbamate], the inhibition at […] (human NAAA) was 18%.
Work on `C[C@@H]1NC(=O)[C@@H]1NC(=O)OCc1ccc(C2CCCCC2)cc1` [Example 85, (4-Cyclohexylphenyl)-methyl-N-[(2S,3R)-2-methyl-4-oxo-azetidin-3-yl]-carbamate] yielded an IC50 (human NAAA) of 0.619 µM.
With `CC1(C)NC(=O)[C@H]1NC(=O)OCCCCC1CCCCC1` [Example 86, 4-Cyclohexylbutyl-N-[(3S)-2,2-dimethyl-4-oxo-azetidin-3-yl]-carbamate] the inhibition at 100 µM (r-NAAA; @100 μM, read-out: r-NAAA UPLC/MS assay % inhib.) was 18%.
With `CC1(C)NC(=O)[C@H]1NC(=O)OCc1ccc(-c2ccccc2)cc1` [Example 87, (4-Phenylphenyl)-methyl-N-[(3S)-2,2-dimethyl-4-oxo-azetidin-3-yl]-carbamate] the “r-NAAA UPLC/MS assay (n.a.)” value (r-NAAA; @100 μM) was “n.a. (n.a. = <10% inhib. @100 μM)”.
With `CC1(C)NC(=O)[C@H]1NC(=O)OCc1ccc(C2CCCCC2)cc1` [Example 88, (4-Cyclohexylphenyl)-methyl-N-[(3S)-2,2-dimethyl-4-oxo-azetidin-3-yl]-carbamate] the “r-NAAA UPLC/MS assay (n.a.)” value (r-NAAA; @100 μM) was “n.a. (n.a. = <10% inhib. @100 μM)”.
`CC1(C)NC(=O)[C@@H]1NC(=O)OCCCCC1CCCCC1` [Example 89, 4-Cyclohexylbutyl-N-[(3R)-2,2-dimethyl-4-oxo-azetidin-3-yl]-carbamate] was tested, and the “r-NAAA UPLC/MS assay (n.a.)” value (r-NAAA; @100 μM) was “n.a. (n.a. = <10% inhib. @100 μM)”.
With `CC1(C)NC(=O)[C@@H]1NC(=O)OCc1ccc(-c2ccccc2)cc1` [Example 90, (4-Phenylphenyl)-methyl-N-[(3R)-2,2-dimethyl-4-oxo-azetidin-3-yl]-carbamate] the “r-NAAA UPLC/MS assay (n.a.)” value (r-NAAA; @100 μM) was “n.a. (n.a. = <10% inhib. @100 μM)”.
`CC1(C)NC(=O)[C@@H]1NC(=O)OCc1ccc(C2CCCCC2)cc1` [Example 91, (4-Cyclohexylphenyl)-methyl-N-[(3R)-2,2-dimethyl-4-oxo-azetidin-3-yl]-carbamate] was tested, and the “r-NAAA UPLC/MS assay (n.a.)” value (r-NAAA; @100 μM) was “n.a. (n.a. = <10% inhib. @100 μM)”.
`Cc1ccc(COC(=O)N[C@H]2CNC2=O)cc1` [Example 94, p-Tolylmethyl-N-[(3S)-2-oxoazetidin-3-yl]-carbamate] was tested, and the IC50 (human NAAA) was 1.23 µM.
With `O=C(N[C@H]1CNC1=O)OCc1cnc(-c2ccccc2)nc1` [Example 98, (2-Phenylpyrimidin-5-yl)-methyl-N-[(3S)-2-oxoazetidin-3-yl]-carbamate] the inhibition at […] (human NAAA) was 26%.
Work on `O=C(N[C@H]1CNC1=O)OCC1CCC(F)(F)CC1` [Example 99, (4,4-Difluorocyclohexyl)-methyl-N-[(3S)-2-oxoazetidin-3-yl]-carbamate] yielded an inhibition at […] (human NAAA) of 35%.
`O=C(N[C@H]1CNC1=O)OCc1ccc(I)cc1` [Example 101, (4-Iodophenyl)-methyl-N-[(3S)-2-oxoazetidin-3-yl]-carbamate] was tested, and the inhibition at […] (human NAAA) was 95%.
Work on `C#CCCCCCCCCCOC(=O)N[C@H]1CNC1=O` [Example 103, Undec-10-ynyl-N-[(3S)-2-oxoazetidin-3-yl]-carbamate] yielded an IC50 (human NAAA) of 0.006 µM.
`CCC[C@H]1CC[C@H](COC(=O)N[C@H]2CNC2=O)CC1` [Example 104] showed an IC50 (human NAAA) of 0.006 µM.
